Measured values: patent US20120301895A1, “METHODS OF MODULATING BINDING OF SON OF SEVENLESS TO PHOSPHATIDIC ACID AND IDENTIFYING COMPOUNDS THAT MODULATE SUCH BINDING” (THE RESEARCH FOUNDATION OF STATE UNIVERSITY OF NEW YORK, priority 2007, published 2012)

Tests used:
[1] = system: B-cell chronic lymphocytic leukemia cells; details: Battle et al. 2005; cited from earlier work
[2] = system: Ras; assay: Ras activation pull-down assay (Raf1 Ras binding domain) in MDA-MB-231 cells; type: cell-based, human; details: 0.5% serum
Experimental: In FIG. 14A, MDA-MB-231 cells were plated and then placed in media containing 0.5% media 24 hr later. 24 hr later, the cells were treated with either DMSO or honokiol (20 μM) as indicated for 2 hr. At this point the cells were harvested and lysates were prepared and treated with the immobilized Ras binding domain of Raf1 as in FIGS. 12A-C. Ras-GTP bound to the Raf1 binding domain was recovered and subjected to Western blot analysis using the Pan-Ras antibody. Total Ras in the cell lysates and actin levels were also examined by Western blot analysis. In FIG. 14B, MDA-MB-231 cells were plated and 24 hr later were shifted to media containing 0.5% serum. The cells were then treated with EGF (200 ng/ml) for 10 min. The cells were also treated with honokiol (20 μM) prior to the addition of EGF for the times indicated. The levels of GTP-bound Ras, total Ras, and actin were then determined as in FIG. 14A. […] Cells were then collected and Ras activation was determined using the pull-down assay as above. Levels of Ras-GTP, Sos, and Ras were determined by Western blot analysis using an antibody that recognized HA. […] Cells were then stimulated with 100 ng/ml EGF for the indicated times (min) and Ras activation was determined as in FIG. 14A. […] Cells were then stimulated with 100 ng/ml EGF for the indicated times (min) and Ras activation was determined as in FIG. 14A. […]

[3] = system: human prostate cancer cells; details: Shigemura et al. 2007; cited from earlier work
[4] = system: tumor growth; details: Bai et al. 2003; cited from earlier work

Compound: C=CCc1ccc(O)c(-c2ccc(O)c(CC=C)c2)c1 [honokiol, Honokiol]
- apoptosis in B-CLL cells [1]: induce caspase-dependent apoptosis
- Ras activation induced by EGF ([2]; honokiol 20 μM before EGF 200 ng/ml 10 min): suppressed
- level of GTP-bound Ras ([2]; honokiol 20 μM, 2 hr, effect small, but reproducible): suppressed
- bone metastatic growth of human prostate cancer cells [3]: inhibit the bone metastatic growth
- tumor growth in mouse xenografts [4]: blocked tumor growth
